Data: patent US20120172503A1, “AMORPHOUS SOLID MODIFICATION OF BIS(2,4-DICUMYLPHENYL) PENTAERYTHRITOL DIPHOSPHITE” (priority 2002, published 2012)

Test: Dissolving rate and solubility in organic materials versus crystalline form
Conditions: in polymers and lubricants; compared to the prior art crystalline form

Substance: bis(2,4-dicumylphenyl)pentaerythritol diphosphite [Example 1]
- rate of dissolving in organic materials: faster rate of dissolving
- solubility in organic materials: better solubility
